Source: PubChem BioAssay (NCI)
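Tested at 5 concentrations; 48 h exposure; 96-well plates; endpoints linearly interpolated, else capped at highest concentration. At the TGI there is no net growth.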

Columns and labels:
Assay in all cases: NCI anticancer screen, dose series, 48 h
SK-OV-3 ovarian = test system: SK-OV-3 ovarian
SF-268 CNS = test system: SF-268 CNS
RXF 393 renal = test system: RXF 393 renal
SF-295 CNS = test system: SF-295 CNS
K-562 leukemia = test system: K-562 leukemia
XF 498 CNS = test system: XF 498 CNS
SNB-19 CNS = test system: SNB-19 CNS
RPMI-8226 leukemia = test system: RPMI-8226 leukemia
DMS 273 small cell lung = test system: DMS 273 small cell lung
LOX IMVI melanoma = test system: LOX IMVI melanoma
HCC-2998 colon = test system: HCC-2998 colon
SK-MEL-28 melanoma = test system: SK-MEL-28 melanoma
SW-620 colon = test system: SW-620 colon
HCT-15 colon = test system: HCT-15 colon
ACHN renal = test system: ACHN renal
SNB-78 CNS = test system: SNB-78 CNS
MALME-3M melanoma = test system: MALME-3M melanoma
HCT-116 colon = test system: HCT-116 colon
UO-31 renal = test system: UO-31 renal
786-0 renal = test system: 786-0 renal
A498 renal = test system: A498 renal
DMS 114 small cell lung = test system: DMS 114 small cell lung
DLD-1 colon = test system: DLD-1 colon
SF-539 CNS = test system: SF-539 CNS
OVCAR-8 ovarian = test system: OVCAR-8 ovarian
M19-MEL melanoma = test system: M19-MEL melanoma
MOLT-4 leukemia = test system: MOLT-4 leukemia
TK-10 renal = test system: TK-10 renal
HT29 colon = test system: HT29 colon
U251 CNS = test system: U251 CNS
UACC-257 melanoma = test system: UACC-257 melanoma
CAKI-1 renal = test system: CAKI-1 renal
KM20L2 colon = test system: KM20L2 colon
SK-MEL-5 melanoma = test system: SK-MEL-5 melanoma
EKVX NSCLC = test system: EKVX NSCLC
OVCAR-4 ovarian = test system: OVCAR-4 ovarian
NCI-H460 lung = test system: NCI-H460 lung
OVCAR-3 ovarian = test system: OVCAR-3 ovarian
SN12C renal = test system: SN12C renal
SR leukemia = test system: SR leukemia
M14 melanoma = test system: M14 melanoma
SNB-75 CNS = test system: SNB-75 CNS
A549 NSCLC = test system: A549 NSCLC
IGROV1 ovarian = test system: IGROV1 ovarian
COLO 205 colon = test system: COLO 205 colon
SK-MEL-2 melanoma = test system: SK-MEL-2 melanoma
OVCAR-5 ovarian = test system: OVCAR-5 ovarian
NCI-H23 lung = test system: NCI-H23 lung
HL-60(TB) leukemia = test system: HL-60(TB) leukemia
HOP-62 NSCLC = test system: HOP-62 NSCLC
CCRF-CEM leukemia = test system: CCRF-CEM leukemia
LXFL 529 NSCLC = test system: LXFL 529 NSCLC
NCI-H522 lung = test system: NCI-H522 lung
KM12 colon = test system: KM12 colon
UACC-62 melanoma = test system: UACC-62 melanoma
HOP-92 NSCLC = test system: HOP-92 NSCLC
NCI-H226 lung = test system: NCI-H226 lung

`N#Cc1c2c(c(Cl)n3c1nc1ccccc13)CCCC2` gave a TGI (SK-OV-3 ovarian) of 10.2 µM, a TGI (SF-268 CNS) of 8.83 µM and a TGI (RXF 393 renal) of 0.904 µM. For the same compound, the TGI (SF-295 CNS) was 16.6 µM, the TGI (K-562 leukemia) was 7.15 µM and the TGI (XF 498 CNS) was 5.29 µM. For the same compound, the TGI (SNB-19 CNS) was 14.7 µM, the TGI (RPMI-8226 leukemia) was 7.52 µM and the TGI (DMS 273 small cell lung) was 3.74 µM. The TGI (LOX IMVI melanoma) was 4.57 µM, the TGI (HCC-2998 colon) was 30.8 µM and the TGI (SK-MEL-28 melanoma) was 4.43 µM. For the same compound, the TGI (SW-620 colon) was 4.43 µM, the TGI (HCT-15 colon) was 10.6 µM and the TGI (ACHN renal) was 12.4 µM. It also gave a TGI (SNB-78 CNS) of 15.9 µM, a TGI (MALME-3M melanoma) of 27 µM and a TGI (HCT-116 colon) of 5.43 µM. It also gave a TGI (UO-31 renal) of 12.8 µM, a TGI (786-0 renal) of 3.33 µM and a TGI (A498 renal) of 23.8 µM. For the same compound, the TGI (DMS 114 small cell lung) was 5.12 µM, the TGI (DLD-1 colon) was 24.2 µM and the TGI (SF-539 CNS) was 14 µM. For the same compound, the TGI (OVCAR-8 ovarian) was 5.89 µM, the TGI (M19-MEL melanoma) was 12.2 µM and the TGI (MOLT-4 leukemia) was 24.8 µM. For the same compound, the TGI (TK-10 renal) was 6.68 µM, the TGI (HT29 colon) was 2.86 µM and the TGI (U251 CNS) was 11.8 µM. For the same compound, the TGI (UACC-257 melanoma) was 3.91 µM, the TGI (CAKI-1 renal) was 11.8 µM and the TGI (KM20L2 colon) was 7.48 µM. It also gave a TGI (SK-MEL-5 melanoma) of 3.26 µM, a TGI (EKVX NSCLC) of 32.1 µM and a TGI (OVCAR-4 ovarian) of 16.7 µM. The TGI (NCI-H460 lung) was 4.02 µM, the TGI (OVCAR-3 ovarian) was 20.1 µM and the TGI (SN12C renal) was 4.74 µM. For the same compound, the TGI (SR leukemia) was greater than 100 µM, the TGI (M14 melanoma) was 11.3 µM and the TGI (SNB-75 CNS) was 30.9 µM. The TGI (A549 NSCLC) was 17.2 µM, the TGI (IGROV1 ovarian) was 8.28 µM and the TGI (COLO 205 colon) was 17.7 µM. It also gave a TGI (SK-MEL-2 melanoma) of 8.34 µM, a TGI (OVCAR-5 ovarian) of 32.4 µM and a TGI (NCI-H23 lung) of 17 µM. It also gave a TGI (HL-60(TB) leukemia) of 5.25 µM.

For `COc1ccc(/C=C/C(=O)C(C)(C)C)cc1OC`, the TGI (SK-OV-3 ovarian) was greater than 100 µM, the TGI (SF-268 CNS) was greater than 100 µM and the TGI (HOP-62 NSCLC) was greater than 100 µM. It also gave a TGI (SF-295 CNS) greater than 100 µM, a TGI (K-562 leukemia) greater than 100 µM and a TGI (XF 498 CNS) greater than 100 µM. For the same compound, the TGI (SNB-19 CNS) was greater than 100 µM, the TGI (RPMI-8226 leukemia) was greater than 100 µM and the TGI (HCC-2998 colon) was greater than 100 µM. The TGI (SK-MEL-28 melanoma) was greater than 100 µM, the TGI (SW-620 colon) was greater than 100 µM and the TGI (HCT-15 colon) was greater than 100 µM. It also gave a TGI (ACHN renal) greater than 100 µM, a TGI (SNB-78 CNS) greater than 100 µM and a TGI (UO-31 renal) greater than 100 µM. For the same compound, the TGI (A498 renal) was greater than 100 µM, the TGI (DMS 114 small cell lung) was greater than 100 µM and the TGI (DLD-1 colon) was greater than 100 µM. For the same compound, the TGI (OVCAR-8 ovarian) was greater than 100 µM, the TGI (M19-MEL melanoma) was greater than 100 µM and the TGI (MOLT-4 leukemia) was greater than 100 µM. For the same compound, the TGI (TK-10 renal) was greater than 100 µM, the TGI (HT29 colon) was greater than 100 µM and the TGI (U251 CNS) was greater than 100 µM. For the same compound, the TGI (UACC-257 melanoma) was greater than 100 µM, the TGI (CAKI-1 renal) was greater than 100 µM and the TGI (KM20L2 colon) was greater than 100 µM. It also gave a TGI (SK-MEL-5 melanoma) greater than 100 µM, a TGI (EKVX NSCLC) greater than 100 µM and a TGI (CCRF-CEM leukemia) greater than 100 µM. For the same compound, the TGI (OVCAR-4 ovarian) was greater than 100 µM, the TGI (NCI-H460 lung) was greater than 100 µM and the TGI (OVCAR-3 ovarian) was greater than 100 µM. The TGI (SN12C renal) was greater than 100 µM, the TGI (LXFL 529 NSCLC) was greater than 100 µM and the TGI (M14 melanoma) was greater than 100 µM. For the same compound, the TGI (NCI-H522 lung) was greater than 100 µM, the TGI (KM12 colon) was greater than 100 µM and the TGI (SNB-75 CNS) was greater than 100 µM. It also gave a TGI (A549 NSCLC) greater than 100 µM, a TGI (IGROV1 ovarian) greater than 100 µM and a TGI (COLO 205 colon) greater than 100 µM. The TGI (UACC-62 melanoma) was greater than 100 µM, the TGI (OVCAR-5 ovarian) was greater than 100 µM and the TGI (NCI-H23 lung) was greater than 100 µM.

In the case of `CCCOP1(=O)C=C(O)C(Cl)=C(C)C1` (stereo unspecified), the TGI (SK-OV-3 ovarian) is reported as greater than 100 µM, the TGI (SF-268 CNS) is reported as greater than 100 µM and the TGI (HOP-62 NSCLC) is reported as greater than 100 µM. For the same compound, the TGI (RXF 393 renal) was greater than 100 µM, the TGI (SF-295 CNS) was greater than 100 µM and the TGI (K-562 leukemia) was greater than 100 µM. The TGI (XF 498 CNS) was greater than 100 µM, the TGI (SNB-19 CNS) was greater than 100 µM and the TGI (DMS 273 small cell lung) was greater than 100 µM. It also gave a TGI (LOX IMVI melanoma) greater than 100 µM, a TGI (HCC-2998 colon) greater than 100 µM and a TGI (SK-MEL-28 melanoma) greater than 100 µM. The TGI (SW-620 colon) was greater than 100 µM, the TGI (HCT-15 colon) was greater than 100 µM and the TGI (ACHN renal) was greater than 100 µM. For the same compound, the TGI (SNB-78 CNS) was greater than 100 µM, the TGI (MALME-3M melanoma) was greater than 100 µM and the TGI (HCT-116 colon) was greater than 100 µM. For the same compound, the TGI (UO-31 renal) was greater than 100 µM, the TGI (786-0 renal) was greater than 100 µM and the TGI (DLD-1 colon) was greater than 100 µM. The TGI (SF-539 CNS) was greater than 100 µM, the TGI (OVCAR-8 ovarian) was greater than 100 µM and the TGI (M19-MEL melanoma) was greater than 100 µM. The TGI (MOLT-4 leukemia) was greater than 100 µM, the TGI (TK-10 renal) was greater than 100 µM and the TGI (HT29 colon) was greater than 100 µM. It also gave a TGI (U251 CNS) greater than 100 µM, a TGI (UACC-257 melanoma) greater than 100 µM and a TGI (KM20L2 colon) greater than 100 µM. It also gave a TGI (SK-MEL-5 melanoma) greater than 100 µM, a TGI (EKVX NSCLC) greater than 100 µM and a TGI (CCRF-CEM leukemia) greater than 100 µM. The TGI (OVCAR-4 ovarian) was greater than 100 µM, the TGI (NCI-H460 lung) was greater than 100 µM and the TGI (OVCAR-3 ovarian) was greater than 100 µM. For the same compound, the TGI (SN12C renal) was greater than 100 µM, the TGI (LXFL 529 NSCLC) was greater than 100 µM and the TGI (SR leukemia) was greater than 100 µM. The TGI (M14 melanoma) was greater than 100 µM, the TGI (NCI-H522 lung) was greater than 100 µM and the TGI (KM12 colon) was greater than 100 µM. The TGI (SNB-75 CNS) was greater than 100 µM, the TGI (A549 NSCLC) was greater than 100 µM and the TGI (IGROV1 ovarian) was greater than 100 µM. For the same compound, the TGI (COLO 205 colon) was greater than 100 µM, the TGI (HOP-92 NSCLC) was greater than 100 µM and the TGI (NCI-H226 lung) was greater than 100 µM. The TGI (SK-MEL-2 melanoma) was greater than 100 µM, the TGI (UACC-62 melanoma) was greater than 100 µM and the TGI (NCI-H23 lung) was greater than 100 µM. For the same compound, the TGI (HL-60(TB) leukemia) was greater than 100 µM.
